Test results published in publication doi:10.1101/2021.05.05.442810v1 (biorxiv, 2021).

Target: truncated variant of M. xanthus ParB (NB and DNA-binding domains) (Myxococcus xanthus, UniProt Q1CVJ4)
Conditions: formed from CTPγS in crystallization; Mg2+; with thiophosphate; pH 8.5

## Nc1ccn([C@@H]2O[C@H](COP(=O)(O)OP(=O)(O)O)[C@@H](O)[C@H]2O)c(=O)n1 [CDP]
  X-ray crystal structure (1.9 Å): we did not detect CTPγS but CDP
